Results: patent US20230135729A1, “COMPOUND WITH ANTI-SPORE ACTIVITY AND PHARMACEUTICAL COMPOSITION THEREOF” (priority 2020, published 2023)
Converted amounts (≈) assume the structure as drawn.

Tests used:
Format in all cases: cell-based
[1] = test system: spores of ATCC BBA1870 strain; experiment: Inhibition of germination of C. difficile spores (MIC), strain ATCC BBA1870; conditions: Clostridioides difficile, ATCCBBA1870STRAIN, 1 h; strain 1870; sodium taurocholate as germinant, BHIS medium, 37° C., OD580 for 60 min; read-out: MIC (minimum concentration that completely inhibits spore germination)
Summary of the method: (§1)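 Germination was followed as the drop in OD580 over 60 min at 37° C in BHIS after adding sodium taurocholate to spores premixed with compound. Spores were first heat-activated (65° C, 30 min) and washed free of self-germinating spores. The inhibition rate was calculated against germinant and non-germinant controls.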

[2] = test system: spores of ATCC 43255 strain; experiment: Inhibition of germination of C. difficile spores (MIC), strain ATCC 43255; conditions: Clostridioides difficile, ATCC43255, 1 h; strain 43255; sodium taurocholate as germinant, BHIS medium, 37° C., OD580 for 60 min; read-out: MIC (minimum concentration that completely inhibits spore germination)
Summary of the method: as §1

[3] = test system: spores of ATCC 630 strain; experiment: Inhibition of germination of C. difficile spores (MIC), strain ATCC 630; conditions: Clostridioides difficile, ATCC630, 1 h; strain 630; sodium taurocholate as germinant, BHIS medium, 37° C., OD580 for 60 min; read-out: MIC (minimum concentration that completely inhibits spore germination)
Summary of the method: as §1

SMILES | MIC [1] | MIC [2] | MIC [3]
CC[C@@H](NC(=O)C[C@@H](C)[C@H]1CC[C@H]2[C@@H]3[C@H](O)C[C@@H]4C[C@@H](O)CC[C@]4(C)[C@H]3CC[C@]12C)c1ccc(Br)s1 [Compound I-143] | 8 µM (≈ 4.65 µg/mL) | 4 µM (≈ 2.32 µg/mL) | 4 µM (≈ 2.32 µg/mL)
CCC(NC(=O)C[C@@H](C)[C@H]1CC[C@H]2[C@@H]3[C@H](O)C[C@@H]4CC(=O)CC[C@]4(C)[C@H]3CC[C@]12C)c1ccc(S(=O)(=O)O)s1 (stereo partly drawn) [Compound I-92] | 16 µM (≈ 9.28 µg/mL) | 32 µM (≈ 18.6 µg/mL) | 16 µM (≈ 9.28 µg/mL)
CC(C)[C@H](NC(=O)C[C@@H](C)[C@H]1CC[C@H]2[C@@H]3C(=O)C[C@@H]4CC(=O)CC[C@]4(C)[C@H]3CC[C@]12C)c1cccs1 [Compound I-67] | > 256 µM | > 256 µM | > 256 µM
CCCCC(NC(=O)C[C@@H](C)[C@H]1CC[C@H]2[C@@H]3C(=O)C[C@@H]4CC(=O)CC[C@]4(C)[C@H]3CC[C@]12C)c1cccs1 (stereo partly drawn) [Compound I-42] | 2 µM (≈ 1.05 µg/mL) | 1 µM (≈ 0.526 µg/mL) | 1 µM (≈ 0.526 µg/mL)
CC(C)[C@@H](NC(=O)C[C@@H](C)[C@H]1CC[C@H]2[C@@H]3[C@H](O)C[C@@H]4C[C@@H](O)CC[C@]4(C)[C@H]3CC[C@]12C)c1ccc(Cl)s1 [Compound I-144] | 4 µM (≈ 2.2 µg/mL) | 2 µM (≈ 1.1 µg/mL) | 2 µM (≈ 1.1 µg/mL)
Cc1ccc(C(C)NC(=O)C[C@@H](C)[C@H]2CC[C@H]3[C@@H]4C(=O)C[C@@H]5CC(=O)CC[C@]5(C)[C@H]4CC[C@]23C)s1 (stereo partly drawn) [Compound I-30] | 2 µM (≈ 0.995 µg/mL) | 2 µM (≈ 0.995 µg/mL) | 1 µM (≈ 0.498 µg/mL)
CC[C@@H](NC(=O)C[C@@H](C)[C@H]1CC[C@H]2[C@@H]3[C@H](O)[C@H](O)[C@@H]4CC(=O)CC[C@]4(C)[C@H]3CC[C@]12C)c1ccc(Cl)s1 [Compound I-123] | 64 µM (≈ 35.2 µg/mL) | 64 µM (≈ 35.2 µg/mL) | 64 µM (≈ 35.2 µg/mL)
CC[C@H](NC(=O)C[C@@H](C)[C@H]1CC[C@H]2[C@@H]3C(=O)C[C@@H]4CC(=O)CC[C@]4(C)[C@H]3CC[C@]12C)c1ccc(S(=O)(=O)O)s1 [Compound I-73] | > 256 µM | > 256 µM | > 256 µM
CCC(NC(=O)C[C@@H](C)[C@H]1CC[C@H]2[C@@H]3[C@H](O)C[C@@H]4CC(=O)CC[C@]4(C)[C@H]3CC[C@]12C)c1cccs1 (stereo partly drawn) [Compound I-84] | 1 µM (≈ 0.5 µg/mL) | 1 µM (≈ 0.5 µg/mL) | 1 µM (≈ 0.5 µg/mL)
CC(C)[C@@H](NC(=O)C[C@@H](C)[C@H]1CC[C@H]2[C@@H]3[C@H](O)C[C@@H]4C[C@H](O)CC[C@]4(C)[C@H]3CC[C@]12C)c1ccc(Cl)s1 [Compound I-139] | 2 µM (≈ 1.1 µg/mL) | 1 µM (≈ 0.55 µg/mL) | 1 µM (≈ 0.55 µg/mL)
CC(C)[C@@H](NC(=O)C[C@@H](C)[C@H]1CC[C@H]2[C@@H]3[C@H](O)C[C@@H]4CC(=O)CC[C@]4(C)[C@H]3CC[C@]12C)c1ccc(Br)s1 [Compound I-100] | 0.25 µM (≈ 0.148 µg/mL) | 0.25 µM (≈ 0.148 µg/mL) | 0.25 µM (≈ 0.148 µg/mL)
CCCCCCCC(=O)O[C@@H]1C[C@@H]2CC(=O)CC[C@]2(C)[C@H]2CC[C@]3(C)[C@@H]([C@H](C)CC(=O)N[C@H](CC)c4ccc(Br)s4)CC[C@H]3[C@H]12 [Compound I-184] | 128 µM (≈ 90.2 µg/mL) | 128 µM (≈ 90.2 µg/mL) | 128 µM (≈ 90.2 µg/mL)
CC[C@@H](NC(=O)C[C@@H](C)[C@H]1CC[C@H]2[C@@H]3[C@H](O)CC4=CC(=O)C=C[C@]4(C)[C@H]3CC[C@]12C)c1ccc(Cl)s1 [Compound I-161-2] | 0.25 µM (≈ 0.133 µg/mL) | 0.5 µM (≈ 0.265 µg/mL) | 0.25 µM (≈ 0.133 µg/mL)
C[C@H](NC(=O)C[C@@H](C)[C@H]1CC[C@H]2[C@@H]3C(=O)C[C@@H]4CC(=O)CC[C@]4(C)[C@H]3CC[C@]12C)c1ccccc1 [Compound I-24] | > 256 µM | > 256 µM | > 256 µM
C[C@H](CC(=O)NCc1nccs1)[C@H]1CC[C@H]2[C@@H]3C(=O)C[C@@H]4C[C@H](O)CC[C@]4(C)[C@H]3CC[C@]12C [Compound I-15] | 32 µM (≈ 15.1 µg/mL) | 64 µM (≈ 30.3 µg/mL) | 32 µM (≈ 15.1 µg/mL)
CC(C)[C@@H](NC(=O)C[C@@H](C)[C@H]1CC[C@H]2[C@@H]3[C@H](OC(=O)CCCCCCC(=O)O)C[C@@H]4CC(=O)CC[C@]4(C)[C@H]3CC[C@]12C)c1ccc(Br)s1 [Compound I-190] | 0.25 µM (≈ 0.187 µg/mL) | 0.25 µM (≈ 0.187 µg/mL) | 0.25 µM (≈ 0.187 µg/mL)
C[C@H](CC(=O)NCc1cccnc1)[C@H]1CC[C@H]2[C@@H]3[C@H](O)C[C@@H]4C[C@H](O)CC[C@]4(C)[C@H]3CC[C@]12C [Compound I-5] | 16 µM (≈ 7.5 µg/mL) | 16 µM (≈ 7.5 µg/mL) | 32 µM (≈ 15 µg/mL)

SMILES | MIC [1] | MIC [2] | MIC [3]
CC(NC(=O)C[C@@H](C)[C@H]1CC[C@H]2[C@@H]3C(=O)C[C@@H]4CC(=O)CC[C@]4(C)[C@H]3CC[C@]12C)c1ccccc1 (stereo partly drawn) [Compound I-23] | 4 µM (≈ 1.91 µg/mL) | 2 µM (≈ 0.955 µg/mL) | 2 µM (≈ 0.955 µg/mL)
CCC(NC(=O)C[C@@H](C)[C@H]1CC[C@H]2[C@@H]3C(=O)C[C@@H]4CC(=O)CC[C@]4(C)[C@H]3CC[C@]12C)c1ccc(Br)s1 (stereo partly drawn) [Compound I-38] | 2 µM (≈ 1.15 µg/mL) | 2 µM (≈ 1.15 µg/mL) | 1 µM (≈ 0.577 µg/mL)
CC(C)C(NC(=O)C[C@@H](C)[C@H]1CC[C@H]2[C@@H]3[C@H](O)C[C@@H]4CC(=O)CC[C@]4(C)[C@H]3CC[C@]12C)c1ccc(S(=O)(=O)O)s1 (stereo partly drawn) [Compound I-101] | 32 µM (≈ 19 µg/mL) | 32 µM (≈ 19 µg/mL) | 32 µM (≈ 19 µg/mL)
CC[C@@H](NC(=O)C[C@@H](C)[C@H]1CC[C@H]2[C@@H]3[C@H](O)[C@H](O)[C@@H]4CC(=O)CC[C@]4(C)[C@H]3CC[C@]12C)c1cccs1 [Compound I-122] | 128 µM (≈ 66 µg/mL) | 128 µM (≈ 66 µg/mL) | 128 µM (≈ 66 µg/mL)
CC(C)[C@@H](NC(=O)C[C@@H](C)[C@H]1CC[C@H]2[C@@H]3C(=O)C[C@@H]4CC(=O)CC[C@]4(C)[C@H]3CC[C@]12C)c1ccc(C(=O)CCCCCCC(=O)O)s1 [Compound I-206] | 256 µM (≈ 171 µg/mL) | 128 µM (≈ 85.5 µg/mL) | 128 µM (≈ 85.5 µg/mL)
C[C@H](CC(=O)NC(CC(=O)O)c1ccccc1)[C@H]1CC[C@H]2[C@@H]3C(=O)C[C@@H]4CC(=O)CC[C@]4(C)[C@H]3CC[C@]12C (stereo partly drawn) [Compound I-64] | > 256 µM | > 256 µM | > 256 µM
CC(C)[C@@H](NC(=O)C[C@@H](C)[C@H]1CC[C@H]2[C@@H]3[C@H](OC(=O)CCCCCCC(=O)O)C[C@@H]4CC(=O)CC[C@]4(C)[C@H]3CC[C@]12C)c1ccc(Cl)s1 [Compound I-189] | 0.25 µM (≈ 0.176 µg/mL) | 0.25 µM (≈ 0.176 µg/mL) | 0.125 µM (≈ 0.0881 µg/mL)
CC(C)[C@H](NC(=O)C[C@@H](C)[C@H]1CC[C@H]2[C@@H]3[C@H](O)C[C@@H]4CC(=O)CC[C@]4(C)[C@H]3CC[C@]12C)c1ccc(Br)s1 [Compound I-99] | > 256 µM | 256 µM (≈ 152 µg/mL) | 256 µM (≈ 152 µg/mL)
C[C@H](CC(=O)N[C@H](C)c1cccs1)[C@H]1CC[C@H]2[C@@H]3C(=O)C[C@@H]4CC(=O)CC[C@]4(C)[C@H]3CC[C@]12C [Compound I-29] | 1 µM (≈ 0.484 µg/mL) | 1 µM (≈ 0.484 µg/mL) | 1 µM (≈ 0.484 µg/mL)
C[C@H](CC(=O)NCc1cccs1)[C@H]1CC[C@H]2[C@@H]3C(=O)C[C@@H]4CC(=O)CC[C@]4(C)[C@H]3CC[C@]12C [Compound I-26] | 0.5 µM (≈ 0.235 µg/mL) | 1 µM (≈ 0.47 µg/mL) | 0.5 µM (≈ 0.235 µg/mL)
CC[C@H](NC(=O)C[C@@H](C)[C@H]1CC[C@H]2[C@@H]3[C@H](OS(=O)(=O)O)C[C@@H]4CC(=O)CC[C@]4(C)[C@H]3CC[C@]12C)c1ccc(Cl)s1 [Compound I-105] | > 256 µM | > 256 µM | > 256 µM
CC[C@@H](NC(=O)C[C@@H](C)[C@H]1CC[C@H]2[C@@H]3[C@H](OC(=O)CCCCCCC(=O)O)C[C@@H]4CC(=O)CC[C@]4(C)[C@H]3CC[C@]12C)c1ccc(Br)s1 [Compound I-188] | 0.25 µM (≈ 0.184 µg/mL) | 0.25 µM (≈ 0.184 µg/mL) | 0.25 µM (≈ 0.184 µg/mL)
CC(=O)O[C@@H]1C[C@@H]2CC(=O)CC[C@]2(C)[C@H]2CC[C@]3(C)[C@@H]([C@H](C)CC(=O)N[C@@H](c4ccc(Br)s4)C(C)C)CC[C@H]3[C@H]12 [Compound I-178] | 1 µM (≈ 0.635 µg/mL) | 0.5 µM (≈ 0.317 µg/mL) | 0.5 µM (≈ 0.317 µg/mL)
C[C@H](CC(=O)NCc1cccs1)[C@H]1CC[C@H]2[C@@H]3C(=O)C[C@@H]4C[C@H](O)CC[C@]4(C)[C@H]3C[C@H](O)[C@]12C [Compound I-20] | 64 µM (≈ 31.2 µg/mL) | 32 µM (≈ 15.6 µg/mL) | 32 µM (≈ 15.6 µg/mL)
CC[C@@H](NC(=O)C[C@@H](C)[C@H]1CC[C@H]2[C@@H]3[C@H](OS(=O)(=O)O)C[C@@H]4CC(=O)CC[C@]4(C)[C@H]3CC[C@]12C)c1ccc(Cl)s1 [Compound I-106] | 0.5 µM (≈ 0.307 µg/mL) | 0.25 µM (≈ 0.154 µg/mL) | 0.5 µM (≈ 0.307 µg/mL)
CC[C@@H](NC(=O)C[C@@H](C)[C@H]1CC[C@H]2[C@@H]3[C@H](O)C[C@@H]4C[C@H](OC)CC[C@]4(C)[C@H]3CC[C@]12C)c1ccc(Cl)s1 [Compound I-169] | 256 µM (≈ 141 µg/mL) | 256 µM (≈ 141 µg/mL) | 128 µM (≈ 70.4 µg/mL)
